Measured values reported in US8802635B2, “Antioxidant, anti-inflammatory, anti-radiation, metal chelating compounds and uses thereof” (Oneday—Biotech And Pharma Ltd., priority 2011, dated 2014).
Starred links: 1 amine or outer side, 2 acyl side, 3 side chain; linkers in the order of their positions; H or OH if unused. Non-standard residues stand in square brackets, D forms with d. γGlu = O=C(O)[C@H](CCC(=O)[*:2])N[*:1]

Legend:
[1] = test system: alanine aminotransferase (ALT) in plasma / liver necrosis; assay: Concanavalin A-induced liver inflammation in C57BL/6 mice; assay type: in vivo; settings: ConA dose 180 μg/mouse
Experimental: Six groups of C57BL/6 female mice (7-8 weeks old) containing 6 mice in each group were injected i.p. with different peptide on days −3, −2, −1 at a dose of 50 mg/kg or with PBS alone. On day zero all the mice were injected i.v. with 250 μg/mouse of Con A and 45 min. later they were injected i.p. with 150 mg/kg of each peptide or PBS.
Eight hours after Con A injection mice were bled into heparinized tubes (approx. 150 ul of blood from each mouse) and the levels of alanine aminotransferase (ALT) was measured in the plasma.
One day later the mice were sacrificed and their livers were placed in 4% formalin and sent for pathological examination.
Next, peptide DY-66 was examined and compared to N-acetylcysteine (NAC), CB3 and CB4. The compounds were tested according to the procedure described above. ConA dose was 180 μg/mouse.
FIG. 8 presents the change in ALT levels (%) for each of the tested compounds compared to PBS treatment (i.e., the ratio between ALT levels in samples obtained from mice treated with a tested compound and ALT levels in samples obtained from PBS-treated mice)

IkappaBalpha = assay: Cytoplasmic stability of I-kappaBalpha in lung, zymosan-induced inflammation; assay type: in vivo, mice; settings: lung tissue, 24 hours after zymosan
Experimental: Male BALB/c mice were randomly allocated into the following experimental groups:
The peptides were administered by an intraperitoneal (i.p.) route of administration as described in Example 3.
The peptides were formulated in D5W as described in Example 3. The vehicle control was D5W.
At 24 hours after administration of zymosan, animals were euthanized and assessed for inflammation by an NF-κB analysis of lung tissue.
Tissues were homogenized and nuclear extracts prepared via centrifugation. ELISA for IkappaBalpha was performed, using a series of standards in order to define absolute concentrations.

[2] = test system: cellularity of the peritoneal exudates; assay: Ovalbumin-induced hypersensitivity (allergic peritonitis): peritoneal cellularity; assay type: in vivo, mice; settings: 125 mg/kg i.p. on days 13, 14, 15
Experimental: (§1) Male BALB/c mice (6-8 weeks old) were housed under specific pathogen-free conditions and maintained on a 12-hour light/dark cycle, with food and water ad libitum. All materials and drugs were obtained from Sigma, Inc.
(§2) Mice in Groups A, B, C, and E (n=10 per group) were sensitized with intraperitoneal (i.p.) 200 μl of sterile PBS containing 100 μg ovalbumin (OVA) and 1.6 mg alum on days 0 and 7, and challenged with intraperitoneal (i.p.) 200 μl of sterile PBS containing 10 μg ovalbumin (OVA) on day 14 in order to induce an experimental model of allergic peritonitis. Mice in Group F (n=10) were injected with intraperitoneal (i.p) 200 μl sterile PBS (“sham” group, no OVA and no Alum).
(§3) Mice in Groups A, B, and C, were treated with 150 μl of sterile PBS containing peptides DY-66, DY-65 and DY-70, respectively, at a dose of 125 mg/kg on days 13, 14, and 15 via an i.p. route of administration.
(§4) Mice in Groups E and F were treated with 150 μl of sterile PBS on days 13, 14, and 15 via an i.p. route of administration. On day 14 the test articles (or PBS vehicle) were injected 30 minutes before injecting the OVA.

HaCaT cells [3] = assay: UVB-induced cytotoxicity in HaCaT cells (MTT); assay type: cell-based; settings: UVB 0.05 J/cm^2; MTT after 72 hours
Experimental: HaCaT cells were seeded in 96-wells plate (10×10^4/ml) and incubated in 37° C., 6% CO2 for 24 hours. Cells were incubated with the peptides at the indicated concentrations for 2.5 hours and washed (PBS). Then 100 μl PBS were added to each well followed by UVB irradiation (0.05 J/cm^2). Cells were washed with PBS and incubated with culture medium (DMEM, 100 μl) containing the peptides. MTT assay was carried out after 72 hours.

[4] = test system: malondialdehyde (MDA) in lung tissue; assay: MDA (lipid peroxidation) in lung, zymosan-induced inflammation; assay type: in vivo, mice; settings: i.p. 3x50 mg/kg before, 120 mg/kg 30 min before and 5 h after zymosan; 24 h; p<0.05
Experimental: Male BALB/c mice were randomly allocated into the following experimental groups (8 mice for each group):
The peptides were administered by an intraperitoneal (i.p.) route of administration as follows: • The first dose (50 mg per kg) was given 3 days before the zymosan injection. • The second dose (50 mg per kg) was given 2 days before the zymosan injection. • The third dose (50 mg per kg) was given 1 day before the zymosan injection. • The fourth dose (120 mg per kg) was given 30 minutes before the zymosan injection. • The fifth dose (120 mg per kg) was given 5 hours after the zymosan injection.
The peptides were formulated in D5W (5% dextrose in water, “D5W”). The vehicle control was D5W. At 24 hours after administration of zymosan, animals were euthanized and assessed for inflammation by an MDA (malondialdehyde) analysis of lung tissue. All the materials and drugs (apart from the peptides) were obtained from Sigma, Inc.
Malondialdehyde (MDA) formation was used to quantify lipid peroxidation, measured as thiobarbituric acid-reactive material. […] After cooling to room temperature, samples were cleared by centrifugation at 10,000 g for 10 min and absorbance was measured at 532 nm using 1,1,3,3-tetramethoxypropane as an external standard. The level of lipid peroxides was expressed as nM MDA/mg protein.

[5] = Metal chelation: ferric ion binding by mass spectra (ESI); settings: 0.83 mM peptide, 1.66 mM FeCL3, 1 hour room temperature
Experimental: (§5) All five peptides were examined for their ability to bind copper and ferric ions. 0.83 mM of each peptide were mixed with 1.66 mM of either FeCL3 or CuSO4. The mixtures were incubated for 1 hour at room temperature and further kept at ° 4 C until analysis. Samples were analyzed by mass spectra (ESI).

[6] = test system: JNK (c-Jun N-terminal kinases); assay: Inhibition of oxidative stress (auranofin)-induced JNK phosphorylation in SH-SY5Y cells; assay type: cell-based, Human; settings: auranofin 5 μM
Experimental: (§6) Human neuroblastoma SH-SY5Y cells were maintained in Dulbecco's modified Eagle's medium (DMEM, Invitrogen) supplemented with 10% fetal bovine serum (Invitrogen), 100 μg/ml streptomycin and 100 U/ml penicillin G (Gibco). Cells were plated at a density of 6.25×10^4/cm^2 and incubated for 24 hours, after which they were exposed to different treatments.
(§7) SH-SY5Y cells were plated on 96-well plates and treated with Auranofin (AuF) (5 μM) for 30 min. Then the cells were washed with PBS and treated with either one of the peptides at the indicated concentrations. Twenty-four hours later, the cells were fixed with glutaraldehyde in final concentration of 0.5% for 10 min. Cells were washed 3 times with DDW dried over night, and washed once with borate buffer (0.1M, pH 8.5). The fixed cells were stained with 200 μl of 1% methylene blue dissolved in borate buffer for 1 hour. After extensive washing and drying, the color was extracted with 200 μl of 0.1 M HCl for 1 h at 37° C. and absorbance was read in spectrophotometer at 630 nm.
(§8) Twenty to thirty micrograms of protein samples were loaded on 10-12% SDS-PAGE gels. The proteins were then transferred electrophoretically to nitrocellulose (Whatman, Germany). The blots were blocked by incubation for 1 h at room temperature (RT) in TBS-T (25 mM Tris-HCl pH 7.4, 0.9% NaCl and 0.02% Tween-20) with 4% Difco skim milk (BD, USA), and incubated over-night at 4° C. with the primary antibody: pERK1/2 (Thr 202/Tyr204), mouse mAb, (1:6,000); p-SAPK/JNK (Thr183/Tyr185), rabbit mAb; SAPK/JNK, mouse mAb; p-p38MAP Kinase (Thr180/Tyr182), rabbit mAb; cleaved caspase 3, rabbit mAb. All antibodies were from Cell Signaling Tech. USA, used at 1:1000. Purified b Catenin, mouse mAb, (1:10,000; BD Transduction Laboratories, USA) diluted in 5% BSA, 0.04% Azide in TBS-T. Proteins were detected with Anti-Mouse or Anti-Rabbit IgG-HRP linked antibody (1:10,000; Cell Signaling, Tech. USA).

[7] = Metal chelation: copper binding by mass spectra (ESI); settings: 0.83 mM peptide, 1.66 mM CuSO4, 1 hour room temperature
Experimental: as §5

p38 MAP Kinase = assay: Inhibition of oxidative stress (auranofin)-induced p38 phosphorylation in SH-SY5Y cells; assay type: cell-based, Human; settings: auranofin 5 μM
Experimental: as §6, §7, §8

anti-OVA serum IgE = assay: Ovalbumin-induced hypersensitivity: serum anti-OVA IgE; assay type: in vivo, mice; settings: 125 mg/kg i.p. on days 13, 14, 15; blood day 16
Experimental: as §1, §2, §3, §4
Blood taken on day 16 was tested for 1) serum anti-OVA IgE, 2) white blood cell count and differential (including absolute and percentage of eosinophils count). Serum was frozen at −80° C. for future optional blood tests.

HaCaT cells [8] = assay: Hydrogen peroxide-induced HaCaT keratinocyte cytotoxicity (MTT); assay type: cell-based; settings: for protection of cell viability after hydrogen peroxide exposure (in words): 90 μM hydrogen peroxide 30 min, MTT after 72 hours
Experimental: All five peptides were examined in this Example, and their activity was compared to the known CB3 peptide. HaCaT cells were seeded in 96-well plate at a concentration of 10×10^4 cells/ml for 24 hours. Then cells were incubated with the peptides at the indicated concentrations for 2.5 hours followed by washing with PBS and incubation with 90 μM hydrogen peroxide (without peptide) for 30 minutes. Cells were washed with PBS and incubated with culture medium containing peptide for 72 hours. Cell viability was tested by MTT. The effect of the peptides on cell viability was performed similarly without hydrogen peroxide exposure.

[9] = test system: carrageenan-induced hind paw swelling; assay: Carrageenan-induced hind paw swelling; assay type: in vivo, mice; settings: 150 mg/kg i.p. 30 min prior to carrageenan
Experimental: The above new five peptides were examined for anti-inflammatory activity, and their activity was compared to that of peptide CB3. Male ICR mice received an i.p. administration of each of the tested peptide (150 mg/kg) 30 min prior to the injection of carrageenan into the sub-plantar area of both of the animal's hind paws. Carrageenan was dissolved in water at concentration of 3 mg/ml and injected at a volume of 50 μl. Hind paw thickness was measured by Mitutoyo® micrometer before carrageenan injection and afterward at intervals of 1 hour between each measurement. Swelling was calculated as the difference between the thickness of the hind paw measured at each time interval and its size at time 0 (before carrageenan injection). n=6 foot pads (3 animals) for each group.

Compound	ALT level compared to PBS-treated mice (in words) [1]	IC50 [6]	IC50 (p38 MAP Kinase)	protection of cell viability after hydrogen peroxide exposure (in words) (HaCaT cells [8])	hind paw swelling compared to control (in words) [9]	other results
CC(=O)N[C@@H](CS)C(=O)O [NAC, N-acetylcysteine, reference compound]	did not induce a significant change in ALT level					
N-acetyl-Cys-Gly-Pro-Cys-NH2 (Ac-CGPC-NH2; cysteine pairing not given here) [CB4, reference compound]	highly increased ALT level					
N-acetyl-Cys-Met-Lys-Cys-NH2 (Ac-CMKC-NH2; cysteine pairing not given here) [DY-70]		22.1 µM	22.2 µM	fully protected the cells from hydrogen peroxide		rank order of efficacy on cytoplasmic IkappaBalpha (IkappaBalpha): DY-70>DY-65>DY-66; effect on OVA-induced elevation of peritoneal exudate cellularity (in words) [2]: significantly reduced the elevation; rank order of reduction of peritoneal exudate cellularity [2]: DY-65>DY-70>DY-66; protection against UVB-induced cytotoxicity (in words) (HaCaT cells [3]): protective effect at low concentrations; effect on zymosan-induced elevation of MDA in lung tissue (in words) [4]: inhibited the elevation in MDA concentration; FeCl binding (in words) [5]: low degree; copper binding (in words) [7]: low degree; effect on OVA-induced elevation of anti-OVA serum IgE titer (in words) (anti-OVA serum IgE): significantly reduced the elevation; rank order of reduction of anti-OVA serum IgE titer (anti-OVA serum IgE): DY-65>DY-70>DY-66
N-acetyl-Cys-Pro-Cys-NH2 (Ac-Cys-Pro-Cys-NH2; cysteine pairing not given here) [CB3, reference compound]	highly increased ALT level			slightly elevated cell viability	did not show a significant reduction	
N-acetyl-Cys-γGlu-Cys-Cys-NH2 (Ac-C[γGlu]CC-NH2; cysteine pairing not given here) [DY-71]		82.3 µM	46.9 µM	slightly elevated cell viability		
N-acetyl-Cys-γGlu-Cys-NH2 (Ac-Cys-[γGlu]-Cys-NH2; cysteine pairing not given here) [DY-67]		67.3 µM	36.5 µM		Reduced swelling compared to control	increase in cell viability (HaCaT cells [8]; concentrations of 1-10 μM): about 45%
